Consider six molecules from PMC7323870 (Bioorganic & medicinal chemistry letters, 2010).

pIC50: −log10 of the molar value. Some results are limits rather than exact numbers.

The term pIC50 denotes −log10 of the IC50, conventionally taken in molar units. The low end stands for a high IC50, the high end for a low IC50.

The test deals with HIV IN (Human immunodeficiency virus type 1 group M subtype B, UniProt P04585). The test can be described thus: HIV IN 3′ processing. It counts as biochemical.
Consider `CNC(=O)c1nc(Cc2ccc(F)cc2)[nH]c(=O)c1O` [compound 7], for which the pIC50 was below 3.48.

For the molecule `CNC(=O)c1nc(Cc2ccc(F)cc2)n(C)c(=O)c1O` [compound 11], the pIC50 was below 3.48.

`O=C(O)c1nc(Cc2ccc(F)cc2)[nH]c(=O)c1O` [compound 10] showed a pIC50 below 3.48.

As to `CNC(=O)c1nc(C)n(Cc2ccc(F)cc2)c(=O)c1O` [compound 6], the pIC50 is below 3.48.

Turning to `COCCNC(=O)c1nc(Cc2ccc(F)cc2)[nH]c(=O)c1O` [compound 8], the pIC50 was below 3.48.

In turn, `CN(C)CCCNC(=O)c1nc(Cc2ccc(F)cc2)[nH]c(=O)c1O` [compound 9] had a pIC50 below 3.48.
